Assay results taken from US9302999B2, “Substituted triazoles as herbicides” (E. I. DU PONT DE NEMOURS AND COMPANY, priority 2012, dated 2016).

Assays:
Assay type in all cases: in vivo
[1] = test system: morningglory (Ipomoea coccinea); assay: Test C pre-/postemergence: morningglory
How it was run: (§1)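 Preemergence on seeds in loam/sand, postemergence on 2–18 cm (1–4-leaf) plants in peat-based medium; compounds in non-phytotoxic solvent with surfactant. After 13–15 days in greenhouse, visual rating versus controls, 0 (no effect) to 100 (complete control).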

[2] = test system: ryegrass, Italian (Italian ryegrass, Lolium multiflorum); assay: Test C pre-/postemergence: ryegrass, Italian
How it was run: as §1

[3] = test system: ducksalad (Heteranthera limosa); assay: Test B flooded paddy: ducksalad; conditions: Flood; 250 g ai/ha; applied to paddy water at 2-leaf stage; visually evaluated after 13 to 15 days
How it was run: (§2)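 Plants were grown to the 2-leaf stage and pots flooded to 3 cm above soil. Compounds were applied directly into the paddy water, with depth kept for the test. After 13–15 days in greenhouse, response was rated visually against controls on a 0 (no effect) to 100 (complete control) scale.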

[4] = test system: chickweed (common chickweed, Stellaria media); assay: Test C postemergence: chickweed
How it was run: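 Visual 0–100 injury score vs untreated controls (0 none, 100 complete control), taken 13–15 d after treatment. Postemergence spray on potted plants, 2–18 cm, 1–4 leaves; greenhouse.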

[5] = test system: barnyardgrass (Echinochloa crus-galli); assay: Test B flooded paddy: barnyardgrass; conditions: Flood; 250 g ai/ha; applied to paddy water at 2-leaf stage; visually evaluated after 13 to 15 days
How it was run: as §2

[6] = test system: sedge, umbrella (small-flower umbrella sedge Cyperus difformis); assay: Test B flooded paddy: sedge, umbrella; conditions: Flood; 250 g ai/ha; applied to paddy water at 2-leaf stage; visually evaluated after 13 to 15 days
How it was run: as §2

[7] = test system: corn (Zea mays); assay: Test C pre-/postemergence: corn
How it was run: as §1

[8] = test system: winter wheat (Triticum aestivum); assay: Test C pre-/postemergence: winter wheat
How it was run: as §1

[9] = test system: blackgrass (Alopecurus myosuroides); assay: Test C pre-/postemergence: blackgrass
How it was run: as §1

[10] = test system: large crabgrass (Digitaria sanguinalis); assay: Test C pre-/postemergence: large crabgrass
How it was run: as §1

[11] = test system: velvetleaf (Abutilon theophrasti); assay: Test A pre-/postemergence: velvetleaf
How it was run: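 Injury was scored visually on a 0 (no effect) to 100 (complete control) scale versus untreated controls roughly ten days after treatment in the greenhouse. Compounds, formulated in surfactant-containing non-phytotoxic solvent, went on as soil-directed preemergence spray or postemergence to one- to two-leaf plants 2–10 cm tall.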

[12] = Postemergence, 31 g ai/ha, scale 0 to 100 (0 no effect, 100 complete control)
[13] = Postemergence, 62 g ai/ha, scale 0 to 100 (0 no effect, 100 complete control)
[14] = Postemergence, 125 g ai/ha, scale 0 to 100, 0 no effect, 100 complete control
[15] = Preemergence, 31 g ai/ha, scale 0 (no effect) to 100 (complete control)
[16] = Preemergence, 62 g ai/ha, scale of 0 to 100, 0 is no effect, 100 is complete control
[17] = Preemergence, 125 g ai/ha, scale 0 to 100, 0 no effect, 100 complete control
[18] = Preemergence, 250 g ai/ha, scale 0 to 100, 0 no effect, 100 complete control
[19] = Postemergence, 250 g ai/ha, scale 0 to 100 (0 no effect, 100 complete control)
[20] = Postemergence, 250 g ai/ha, scale 0 to 100

CCc1nn(-c2ccc(F)c(F)c2)nc1Oc1ccnc(C(F)(F)F)c1 [Compound 171]
Plant response rating, Morningglory [1, 12]: 60
Plant response rating, Morningglory [1, 13]: 65
Plant response rating, Morningglory [1, 14]: 98
Plant response rating, Morningglory [1, 15]: 0
Plant response rating, Morningglory [1, 16]: 20
Plant response rating, Morningglory [1, 17]: 25
Plant response rating, Morningglory [1, 18]: 25
Plant response rating, Ryegrass, Italian [2, 12]: 5
Plant response rating, Ryegrass, Italian [2, 13]: 5
Plant response rating, Ryegrass, Italian [2, 14]: 10
Plant response rating, Ryegrass, Italian [2, 19]: 10
Plant response rating, Ryegrass, Italian [2, 15]: 10
Plant response rating, Ryegrass, Italian [2, 16]: 50
Plant response rating, Ryegrass, Italian [2, 17]: 60
Plant response rating, Ryegrass, Italian [2, 18]: 100
Plant response rating, Ducksalad (0 to 100 scale, 0 is no effect, 100 is complete control) [3]: 0
Plant response rating, Chickweed ([4]; 31 g ai/ha, scale 0 to 100 (0 no effect, 100 complete control)): 50
Plant response rating, Chickweed ([4]; 62 g ai/ha, scale 0 to 100 (0 no effect, 100 complete control)): 70
Plant response rating, Chickweed ([4]; 125 g ai/ha, scale 0 to 100, 0 no effect, 100 complete control): 95
Plant response rating, Chickweed ([4]; 250 g ai/ha, scale 0 to 100): 100
Plant response rating, Barnyardgrass (0 to 100 scale, 0 is no effect, 100 is complete control) [5]: 70
Plant response rating, Sedge, Umbrella (0 to 100 scale, 0 is no effect, 100 is complete control) [6]: 85
Plant response rating, Corn [7, 12]: 15
Plant response rating, Corn [7, 13]: 15
Plant response rating, Corn [7, 14]: 15
Plant response rating, Corn [7, 20]: 15
Plant response rating, Corn [7, 15]: 0
Plant response rating, Corn [7, 16]: 0
Plant response rating, Corn [7, 17]: 5
Plant response rating, Corn [7, 18]: 25
Plant response rating, Wheat [8, 12]: 5
Plant response rating, Wheat [8, 13]: 10
Plant response rating, Wheat [8, 14]: 20
Plant response rating, Wheat [8, 19]: 20
Plant response rating, Wheat [8, 15]: 0
Plant response rating, Wheat [8, 16]: 0
Plant response rating, Wheat [8, 17]: 5
Plant response rating, Wheat [8, 18]: 45
Plant response rating, Blackgrass [9, 12]: 5
Plant response rating, Blackgrass [9, 13]: 10
Plant response rating, Blackgrass [9, 14]: 10
Plant response rating, Blackgrass [9, 20]: 30
Plant response rating, Blackgrass [9, 15]: 5
Plant response rating, Blackgrass [9, 16]: 98
Plant response rating, Blackgrass [9, 17]: 100
Plant response rating, Blackgrass [9, 18]: 100
Plant response rating, Crabgrass, Large [10, 12]: 15
Plant response rating, Crabgrass, Large [10, 13]: 20
Plant response rating, Crabgrass, Large [10, 14]: 40
Plant response rating, Crabgrass, Large [10, 20]: 55
Plant response rating, Crabgrass, Large [10, 15]: 85
Plant response rating, Crabgrass, Large [10, 16]: 100
Plant response rating, Crabgrass, Large [10, 17]: 100
Plant response rating, Crabgrass, Large [10, 18]: 100
Plant response rating, Velvetleaf ([11]; Postemergence, 125 g ai/ha, 0 to 100 scale, 0 is no effect, 100 is complete control): 70
Velvetleaf plant response rating ([11]; Postemergence, 500 g ai/ha, 0 to 100 scale, 0 is no effect, 100 is complete control): 90
Plant response rating, Velvetleaf ([11]; Preemergence, 125 g ai/ha, 0 to 100 scale where 0 is no effect and 100 is complete control): 60
Plant response rating, Velvetleaf ([11]; Preemergence, 500 g ai/ha, 0 to 100 scale (0 no effect, 100 complete control)): 80
